Tests used:
[1] = hypercalcemic and hypercalcinuric activity in vivo; set-up: species or system Wistar rats; settings: for calcium excretion in urine, second collecting phase (16-22 hours): after oral calcium, solvent control 1.5 μmol/animal; for calcium excretion in urine, first collecting phase (0-16 hours): solvent control 12.2 μmol/animal; for calcium excretion in second collecting phase (16-22 hours), result in words: 200 μg/kg s.c. versus calcitriol 2 μg/kg and solvent control; for serum calcium concentration: 22 hours after administration, solvent control 3.0 mmol/l; for hypercalcemia induction: 200 μg/kg subcutaneous; for hypercalcemia induction / in vivo potency reduced by factor in comparison to calcitriol: male Wistar rats; for in vivo potency reduced by factor in comparison to calcitriol: calcium metabolism, subcutaneous
Protocol: To assess the corresponding activities of the substances according to the invention, the hypercalcemic and hypercalcinuric activity in vivo is determined. […] Urine is collected in the period of 0-16 hours after substance administration. Then, the animals orally receive 1 μmol of calcium in 6.5% klucel (hydroxypropyl cellulose) and again urine is collected for the period of 16-22 hours after substance administration. The urine volume of each fraction is measured to measure the absolute calcium excretion. After 22 hours, the animals are killed by decapitation and the blood is collected. The calcium concentration in serum and urine is determined by flame photometry.

HL 60 cells = assay: HL 60 differentiation induction (NBT reduction to formazan); type: cell-based; settings: Homo sapiens, 96 hours incubation, formazan at 650 nm, read-out: ED50 (differentiation induction of HL 60 cells to macrophages)
Protocol: HL 60 cells are cultivated in tissue-culture medium (RPMI-10% fetal calf serum) at 37° C. in an atmosphere of 5% CO2 in air.
For substance testing, the cells are centrifuged off and 2.8 ×10^5 cells/ml in phenol red-free tissue-culture medium are taken up. The test substances are dissolved in ethanol and diluted with tissue-culture medium without phenol red to the desired concentration. The dilution stages are mixed with the cell suspension in a ratio of 1:10 and pipetted in 100 μl each of this cell suspension mixed with substance in an indentation of a 96-hole plate. For control, a cell suspension is analogously mixed with the solvent.
After incubation over 96 hours at 37° C. in 5% CO2 in air, 100 μl of an NBT-TPA solution (nitro blue tetrazolium (NBT), final concentration in the batch of 1 mg/ml, tetradecanoyl phorbol myristate-13-acetate (TPA), final concentration in the batch of 2 ×10^-7 mol/l) is pipetted in the cell suspension in every indentation of the 96-hole plate.
By incubation over 2 hours at 37° C. and 5% CO2 in air, NBT is reduced to insoluble formazan because of the intracellular oxygen radical release, stimulated by TPA, in the cells differentiated to macrophages.
For completion of the reaction, the indentations of the 96-hole plate are suctioned off, and the adhering cells are fixed by adding methanol and dried after fixing.
To dissolve the formed intracellular formazan crystals, 100 μl of potassium hydroxide (2 val/l) and 100 μl of dimethyl sulfoxide are pipetted in each indentation and ultrasonically treated for 1 minute. The concentration of formazan is measured by spectrophotometry at 650 nm.
The concentration of formed formazan is regarded as a measurement for the differentiation induction of the HL 60 cells to macrophages.

SMILES: C=C1/C(=C\C=C2/CCC[C@]3(C)[C@@H]([C@H](C)CCCC(C)(C)O)CC[C@@H]23)C[C@@H](O)C[C@@H]1O [calcitriol, 1α,25-Dihydroxycholecalciferol, reference compound]
- calcium excretion in urine, second collecting phase (16-22 hours) ([1]; calcitriol 2 μg/kg s.c.): 25.1 μmol/animal
- calcium excretion in urine, first collecting phase (0-16 hours) ([1]; calcitriol 2 μg/kg s.c.): 40.6 μmol/animal
- EC50 (HL 60 cells): 1.6 nM

SMILES: C=C1/C(=C\C=C2/CCC[C@]3(C)[C@@H]([C@H](C)/C=C/COCC(C)(C)O)CC[C@@H]23)C[C@@H](O)C[C@@H]1O [compound 16, (5Z,7E,22E)-(1S,3R)-24-(2-Hydroxy-2-methylpropoxy)-9,10-secochola-5,7,10(19),22-tetraene-1,3-diol]
- calcium excretion in second collecting phase (16-22 hours), result in words [1]: not increased relative to the solvent control
- serum calcium concentration ([1]; 200 μg/kg s.c.): 3.0 mmol/L
- calcium excretion in urine, second collecting phase (16-22 hours) ([1]; 200 μg/kg s.c.): 3.6 μmol/animal
- calcium excretion in urine, first collecting phase (0-16 hours) ([1]; 200 μg/kg s.c.): 62.4 μmol/animal
- hypercalcemia induction [1]: no hypercalcemia
- in vivo potency reduced by factor in comparison to calcitriol [1]: > 100
- EC50 (HL 60 cells): 3.2 nM

SMILES: C=C1/C(=C\C=C2/CCC[C@]3(C)[C@@H]([C@H](C)/C=C/COCC(O)(CC)CC)CC[C@@H]23)C[C@@H](O)C[C@@H]1O [compound 17, (5Z,7E,22E)-(1S,3R)-24-(2-Ethyl-2-hydroxybutoxy)-9,10-secochola-5,7,10(19),22-tetraene-1,3-diol]
- calcium excretion in second collecting phase (16-22 hours), result in words [1]: not significantly different to the standard calcitriol
- serum calcium concentration ([1]; 200 μg/kg s.c.): 3.4 mmol/L
- calcium excretion in urine, second collecting phase (16-22 hours) ([1]; 200 μg/kg s.c.): 47.0 μmol/animal
- calcium excretion in urine, first collecting phase (0-16 hours) ([1]; 200 μg/kg s.c.): 61.7 μmol/animal
- hypercalcemia induction [1]: slight hypercalcemia
- in vivo potency reduced by factor in comparison to calcitriol [1]: ~100
- EC50 (HL 60 cells): 1 nM
